Measured values taken from ChEMBL document CHEMBL5335852, “The Promiscuous Flavin-Dependent Monooxygenase PboD from Aspergillus ustus Increases the Structural Diversity of Hydroxylated Pyrroloindoline Diketopiperazines” (J Nat Prod, 2024).
Calls of active or inactive are those of the source.

What was measured:
Assay type in all cases: functional, organism-based
Pseudomonas aeruginosa = assay: Antibacterial activity against Pseudomonas aeruginosa ATCC 27853 assessed as inhibition of bacterial growth incubated for 20 hrs by agar disk-diffusion method
Enterococcus faecalis = assay: Antibacterial activity against Enterococcus faecalis DSM 2570 assessed as inhibition of bacterial growth incubated for 20 hrs by agar disk-diffusion method
Klebsiella pneumoniae = assay: Antibacterial activity against Klebsiella pneumoniae DSM 26371 assessed as inhibition of bacterial growth incubated for 20 hrs by agar disk-diffusion method
Staphylococcus delphini = assay: Antibacterial activity against Staphylococcus delphini DSM 20771 assessed as inhibition of bacterial growth incubated for 20 hrs by agar disk-diffusion method
Bacillus subtilis = assay: Antibacterial activity against Bacillus subtilis […] assessed as inhibition of bacterial growth incubated for 20 hrs by agar disk-diffusion method
Staphylococcus aureus = assay: Antibacterial activity against Staphylococcus aureus ATCC29213 assessed as inhibition of bacterial growth incubated for 20 hrs by agar disk-diffusion method
Niallia circulans = assay: Antibacterial activity against Bacillus circulans NRRL B-380 assessed as inhibition of bacterial growth incubated for 20 hrs by agar disk-diffusion method
Escherichia coli = assay: Antibacterial activity against Escherichia coli ATCC 35218 assessed as inhibition of bacterial growth incubated for 20 hrs by agar disk-diffusion method

Measured: Activity

O=C1N[C@@H](Cc2ccc(O)cc2)C(=O)N2[C@H]1C[C@@]1(O)c3ccccc3N[C@@H]21
inactive: all assays above

CSCC[C@@H]1NC(=O)[C@@H]2C[C@@]3(O)c4ccccc4N[C@H]3N2C1=O
inactive: all assays above

O=C1N[C@@H](Cc2c[nH]c3ccccc23)C(=O)N2[C@H]1C[C@@]1(O)c3ccccc3N[C@@H]21
inactive: all assays above

CC(C)C[C@@H]1NC(=O)[C@@H]2C[C@@]3(O)c4ccccc4N[C@H]3N2C1=O
inactive: all assays above

C[C@@H]1NC(=O)[C@@H]2C[C@@]3(O)c4ccccc4N[C@H]3N2C1=O
inactive: all assays above

O=C1N[C@@H](Cc2ccccc2)C(=O)N2[C@H]1C[C@@]1(O)c3ccccc3N[C@@H]21
inactive: all assays above
